{"source": "patent US8703697B2", "about": "“Method for treating early severe diffuse acute respiratory distress syndrome” (priority 2011, dated 2014)", "key": {"severe diffuse ARDS": {"test_system": "severe diffuse ARDS", "assay": "Case observation: ARDS patient sedated with clonidine under spontaneous ventilation-pressure support and high PEEP", "assay_type": "in vivo, human"}, "sedation": {"test_system": "sedation", "conditions": "continuous infusion for sedation; cited from earlier work"}}, "data": [{"smiles": "Clc1cccc(Cl)c1N=C1NCCN1", "note": "[clonidine]", "values": [{"measurement": "P/F (PaO2/FiO2)", "setting": "severe diffuse ARDS; human, in vivo", "result": 262}, {"measurement": "Ramsay score", "setting": "severe diffuse ARDS; under clonidine 1 μg·kg-1·h-1, progressively lowered from Ramsay 5-6, patient communicated with family on D5", "result": "2-3"}]}, {"smiles": "Cc1cccc([C@H](C)c2cnc[nH]2)c1C", "note": "[dexmedetomidine]", "values": [{"measurement": "dosage at which ceiling effect is observed", "setting": "sedation", "result": 1.5, "unit": "µg/kg/h"}]}, {"smiles": "NC[C@H](O)c1ccc(O)c(O)c1", "note": "[noradrenaline]", "values": [{"measurement": "mean arterial pressure", "setting": "severe diffuse ARDS; noradrenaline 0.45 μg·kg-1·min-1 lowered to 0.01 μg·kg-1·min-1, forced diuresis", "result": "> 100", "unit": "mm Hg"}]}, {"smiles": "CC(CCc1ccc(O)cc1)NCCc1ccc(O)c(O)c1", "note": "(centres unmarked) [dobutamine]", "values": [{"measurement": "Superior vena cava O2 saturation", "setting": "severe diffuse ARDS; at all intervals, dobutamine D3 to D6, 2 then 1 μg·kg-1·min-1", "result": "> 70", "unit": "%"}]}]}
